Results taken from PMC10355216, “The C-terminal tail of CSNAP attenuates the CSN complex” (Life Science Alliance, 2023).
Where no end group is shown, it is not given here. [ ]: non-standard residue; d: D form. Aib = CC(C)(N)C(=O)O

Key:
CSN^ΔCSNAP complex = assay: Peptide array screen of C-CSNAP peptides with rCSN^ΔCSNAP; assay type: binding; settings: average of 5 experiments;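 also: Array-printed peptides incubated with 0.5 µM CSN^ΔCSNAP, bound complex detected by anti-CSN3 antibody plus HRP-linked secondary, spot intensity expressed relative to the parent reference peptide spot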
Experimental: Peptide array screen of modified C-CSNAP peptides. C-CSNAP peptide and its derivatives were printed on a microarray. The array was blocked and incubated with or without the CSN∆CSNAP complex and probed using an anti-CSN3 antibody and HRP-conjugated secondary antibody. To assess non-specific binding of the antibodies to the array, anti-CSN3 and anti-GAR-HRP were used without the addition of the COP9 signalosome complex (CSN). Signal intensity of each spot was measured and normalized to the intensity of the spot of C-CSNAP (A1). Measured values for each spot were averaged from six arrays and plotted with standard errors SEM.
(§1) Intensity values are normalized to the intensity of the 16AA C-CSNAP peptide (A1) on each array from three independent experiments in duplicates, and averages from the six replicates are calculated with SEM.
(§2) Optimization of C-CSNAP sequence for enhanced binding to recombinant CSN^ΔCSNAP was screened by printing the modified sequences of CSNAP or C-CSNAP (Phe to Trp, Asp to Glu, Ala screen, D-amino acid screen, N-α-methylation, and Aib incorporation on INTAVIS Celluspots array [2 × 384spots]). The array was blocked with 5% skim milk in TBS-0.5% Tween 20 (TBS-T) for 4 h at room temperature, washed three times in TBS-T, and then incubated with 0.5 μM CSN^ΔCSNAP in 5% milk–TBS-T. Bound CSN^ΔCSNAP was visualized by incubating with anti-CSN3 (ab79698) antibody (1:10,000, overnight) and goat-anti-rabbit-HRP secondary antibody (1:10,000, 1 h).

recombinant CSN complex = assay: Peptide array screen of C-CSNAP peptides with recombinant CSN (rCSN^WT); assay type: binding; settings: for Average fold change, intensities as fold of C-CSNAP (A1): rCSN^WT on INTAVIS Celluspots array, anti-CSN3 and HRP secondary antibody, average of six replicates (three independent experiments in duplicates); for Average fold change: peptide array with rCSN, average of 3 experiments, left and right (n = 6), fold of C-CSNAP (A1); for intensities as fold of C-CSNAP (A1), Experiment #1 left / intensities as fold of C-CSNAP (A1), Experiment #1 right / intensities as fold of C-CSNAP (A1), Experiment #2 left / intensities as fold of C-CSNAP (A1), Experiment #2 right / intensities as fold of C-CSNAP (A1), Experiment #3 left / intensities as fold of C-CSNAP (A1), Experiment #3 right: rCSN^WT peptide array; for intensities as fold of C-CSNAP (A1), Experiment #1 left: replicate: Experiment #1, left array; for intensities as fold of C-CSNAP (A1), Experiment #1 right: replicate: Experiment #1, right array; for intensities as fold of C-CSNAP (A1), Experiment #2 left: replicate: Experiment #2, left array; for intensities as fold of C-CSNAP (A1), Experiment #2 right: replicate: Experiment #2, right array; for intensities as fold of C-CSNAP (A1), Experiment #3 left: replicate: Experiment #3, left array; for intensities as fold of C-CSNAP (A1), Experiment #3 right: replicate: Experiment #3, right array;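 as to all read-outs here: densitometric signal of CSN bound to each synthesized peptide spot, with an antibody-only array lacking CSN run to exclude non-specific binding, higher values meaning stronger binding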
Experimental: To generate an optimized C-CSNAP peptide, we used the peptide array methodology. The array was designed to screen for the optimal peptide length, sequence, and stability (Fig 3A). A recombinant CSN complex was expressed, purified, and screened for binding to the peptide array by using an anti-CSN3 antibody. To rule out non-specific binding of the probing antibody, a control experiment was carried out without the addition of the CSN complex (Fig 3A right panel).
C-CSNAP peptide and its derivatives were synthesized on a microarray. The array was blocked and incubated with or without the COP9 signalosome complex (CSN) and probed using an anti-CSN3 antibody and HRP-conjugated secondary antibody. To assess non-specific binding of the antibodies to the array, anti-CSN3 and anti-GAR–HRP were used without the addition of the CSN. Signal intensity of each spot was measured and normalized to the intensity of the spot of C-CSNAP (A1). Measured values for each spot were averaged from six arrays and plotted with SEM. […] (A) A representative image of the peptide array (left) and the background (right). (B) Elongation of the C-terminal 16 amino acids (green) with one residue at a time based on the full-length sequence. […] (F) Single D-amino acid substitution at various positions.
as §1, §2

[1] = peptide array, rCSN^ΔCSNAP, left and right spots
[2] = peptide array with rCSN^ΔCSNAP, left and right (n = 10), fold of C-CSNAP (A1)

Substance	Average fold change (CSN^ΔCSNAP complex; [1])	Average fold change, intensities as fold of C-CSNAP (A1) (recombinant CSN complex)	other results
DFFNDFEDLFDDEDIQ [D 8, C-CSNAP, Asp to Glu substitution D54E]	1.1238 fold of C-CSNAP (A1)	0.9836 fold of C-CSNAP (A1)	
DFFNEFEELFEEEDIQ [D46,49,52,53,54E]	1.3745 fold of C-CSNAP (A1)		Average fold change (recombinant CSN complex): 0.5724 fold
DFFNDFEDLFEDEEIQ [D52,53,56E]	1.1721 fold of C-CSNAP (A1)		Average fold change (recombinant CSN complex): 0.6027 fold
DFFNDFEELFEEEDIQ [D49,52,53,54E]	0.9844 fold of C-CSNAP (A1)		Average fold change (recombinant CSN complex): 0.6224 fold
DFFNEFEDLFDDDEIQ [Position D20, C-CSNAP, Asp to Glu substitution D46,55E]	1.3581 fold of C-CSNAP (A1)	0.7799 fold of C-CSNAP (A1)	
EAGGSTGLLMDLAANEKAVHADFFNDFEDLFDDDDIQ [Position A22, CSNAP residues 21-57]		1.1428 fold of C-CSNAP (A1)	Average fold change (CSN^ΔCSNAP complex; [2]): 1.3163 fold
DWWNDWEDLWDDDDIQ [D 2, C-CSNAP, Phe to Trp substitution F43,44,47,51W]	0.9168 fold of C-CSNAP (A1)	0.6800 fold of C-CSNAP (A1)	
EFFNDFEELFEEDDIQ [D42,49,52,53E]	0.8283 fold of C-CSNAP (A1)		Average fold change (recombinant CSN complex): 0.7257 fold
DFFNDFEELFEEDEIQ [D49,52,53,55E]	1.1749 fold of C-CSNAP (A1)		Average fold change (recombinant CSN complex): 0.6996 fold
LLMDLAANEKAVHADFFNDFEDLFDDDDIQ [Position A15, CSNAP residues 28-57]		0.9771 fold of C-CSNAP (A1)	Average fold change (CSN^ΔCSNAP complex; [2]): 1.2034 fold
EFFNEFEELFDDEDIQ [D42,46,49,54E]	1.0465 fold of C-CSNAP (A1)		Average fold change (recombinant CSN complex): 0.5426 fold
DFFNEFEELFEDEEIQ [D46,49,52,54,55E]	1.2301 fold of C-CSNAP (A1)		Average fold change (recombinant CSN complex): 0.5968 fold
DFFNEFEDLFDDEDIQ [Position D19, C-CSNAP, Asp to Glu substitution D46,54E]	1.1127 fold of C-CSNAP (A1)	0.6165 fold of C-CSNAP (A1)	
DWWNDFEDLFDDDDIQ [Position C16, C-CSNAP, Phe to Trp substitution F43,44W]	1.3233 fold of C-CSNAP (A1)	0.7427 fold of C-CSNAP (A1)	
DFFNDWEDLFDDDDIQ [Position C14, C-CSNAP, Phe to Trp substitution F47W]	1.1204 fold of C-CSNAP (A1)	0.9440 fold of C-CSNAP (A1)	
GGSTGLLMDLAANEKAVHADFFNDFEDLFDDDDIQ [Position A20, CSNAP residues 23-57]		0.8793 fold of C-CSNAP (A1)	Average fold change (CSN^ΔCSNAP complex; [2]): 1.1737 fold
DFFNDFEDLFDD[Aib]DIQ[Aib] [Position H18, C-CSNAP with Aib incorporation (54,58)]		0.2987 fold of C-CSNAP (A1)	Average fold change, intensities as fold of C-CSNAP (A1) (CSN^ΔCSNAP complex; [1]): 1.0167 fold; intensities as fold of C-CSNAP (A1), Experiment #1 left (recombinant CSN complex): 0.3071 fold of C-CSNAP (A1); intensities as fold of C-CSNAP (A1), Experiment #1 right (recombinant CSN complex): 0.2334 fold of C-CSNAP (A1); intensities as fold of C-CSNAP (A1), Experiment #2 left (recombinant CSN complex): 0.1973 fold of C-CSNAP (A1); intensities as fold of C-CSNAP (A1), Experiment #2 right (recombinant CSN complex): 0.2444 fold of C-CSNAP (A1); intensities as fold of C-CSNAP (A1), Experiment #3 left (recombinant CSN complex): 0.2003 fold of C-CSNAP (A1); intensities as fold of C-CSNAP (A1), Experiment #3 right (recombinant CSN complex): 0.6096 fold of C-CSNAP (A1)
DFFN-Aib-FEDLF-Aib-DDDIQ-Aib [Position H15, C-CSNAP with Aib incorporation (46,52,58)]		0.4542 fold of C-CSNAP (A1)	Average fold change, intensities as fold of C-CSNAP (A1) (CSN^ΔCSNAP complex; [1]): 0.5199 fold; intensities as fold of C-CSNAP (A1), Experiment #1 left (recombinant CSN complex): 0.3458 fold of C-CSNAP (A1); intensities as fold of C-CSNAP (A1), Experiment #1 right (recombinant CSN complex): 0.3290 fold of C-CSNAP (A1); intensities as fold of C-CSNAP (A1), Experiment #2 left (recombinant CSN complex): 0.2291 fold of C-CSNAP (A1); intensities as fold of C-CSNAP (A1), Experiment #2 right (recombinant CSN complex): 0.4652 fold of C-CSNAP (A1); intensities as fold of C-CSNAP (A1), Experiment #3 left (recombinant CSN complex): 0.2799 fold of C-CSNAP (A1); intensities as fold of C-CSNAP (A1), Experiment #3 right (recombinant CSN complex): 1.0762 fold of C-CSNAP (A1)
EFFNEFEELFEEEDIQ [D42,46,49,52,53, 54E]	0.9285 fold of C-CSNAP (A1)		Average fold change (recombinant CSN complex): 0.5691 fold

Substance	Average fold change (CSN^ΔCSNAP complex; [1])	Average fold change, intensities as fold of C-CSNAP (A1) (recombinant CSN complex)	other results
DFFNDFEELFDDDDIQ [D 5, C-CSNAP, Asp to Glu substitution D49E]	0.9235 fold of C-CSNAP (A1)	0.8086 fold of C-CSNAP (A1)	
EFFNEFEELFEDDEIQ [D42,46,49,52,55E]	0.9893 fold of C-CSNAP (A1)		Average fold change (recombinant CSN complex): 0.5210 fold
DFFNDFEDLFDEDDIQ [D 7, C-CSNAP, Asp to Glu substitution D53E]	1.1500 fold of C-CSNAP (A1)	0.9008 fold of C-CSNAP (A1)	
DFFN-Aib-FEDLF-Aib-DDDI-Aib [Position H17, C-CSNAP with Aib incorporation (46,52,57)]		0.3449 fold of C-CSNAP (A1)	Average fold change, intensities as fold of C-CSNAP (A1) (CSN^ΔCSNAP complex; [1]): 0.7091 fold; intensities as fold of C-CSNAP (A1), Experiment #1 left (recombinant CSN complex): 0.3158 fold of C-CSNAP (A1); intensities as fold of C-CSNAP (A1), Experiment #1 right (recombinant CSN complex): 0.2689 fold of C-CSNAP (A1); intensities as fold of C-CSNAP (A1), Experiment #2 left (recombinant CSN complex): 0.1472 fold of C-CSNAP (A1); intensities as fold of C-CSNAP (A1), Experiment #2 right (recombinant CSN complex): 0.2740 fold of C-CSNAP (A1); intensities as fold of C-CSNAP (A1), Experiment #3 left (recombinant CSN complex): 0.2292 fold of C-CSNAP (A1); intensities as fold of C-CSNAP (A1), Experiment #3 right (recombinant CSN complex): 0.8343 fold of C-CSNAP (A1)
DFFNEFEELFEEDEIQ [D46,49,52,53,55E]	1.1600 fold of C-CSNAP (A1)		Average fold change (recombinant CSN complex): 0.5677 fold
DFFNEFEELFDDDDIQ [Position D16, C-CSNAP, Asp to Glu substitution D46,49E]	1.2614 fold of C-CSNAP (A1)	0.7250 fold of C-CSNAP (A1)	
EFFNDFEELFEDEDIQ [D42,49,52,54E]	1.0950 fold of C-CSNAP (A1)		Average fold change (recombinant CSN complex): 0.7100 fold
EFFNEFEDLFDDEDIQ [E 7, C-CSNAP, Asp to Glu substitution D42,46,54E]	1.1480 fold of C-CSNAP (A1)	0.6639 fold of C-CSNAP (A1)	
EFFNDFEELFDDDEIQ [Position E12, C-CSNAP, Asp to Glu substitution D42,49,55E]	0.9711 fold of C-CSNAP (A1)	0.6694 fold of C-CSNAP (A1)	
GLLMDLAANEKAVHADFFNDFEDLFDDDDIQ [Position A16, CSNAP residues 27-57]		1.0167 fold of C-CSNAP (A1)	Average fold change (CSN^ΔCSNAP complex; [2]): 1.2168 fold
DFFNDFEELFDDDEIQ [Position D24, C-CSNAP, Asp to Glu substitution D49,55E]	1.2175 fold of C-CSNAP (A1)	0.5347 fold of C-CSNAP (A1)	
VDLDEAGGSTGLLMDLAANEKAVHADFFNDFEDLFDDDDIQ [B 2, CSNAP residues 17-57]		0.7909 fold of C-CSNAP (A1)	Average fold change (CSN^ΔCSNAP complex; [2]): 0.8221 fold
DFFNDFEDLFEEEDIQ [D52,53,54E]	1.1046 fold of C-CSNAP (A1)		
STGLLMDLAANEKAVHADFFNDFEDLFDDDDIQ [Position A18, CSNAP residues 25-57]		0.9600 fold of C-CSNAP (A1)	Average fold change (CSN^ΔCSNAP complex; [2]): 1.3562 fold
KAVHADFFNDFEDLFDDDDIQ [A 6, CSNAP residues 37-57]		1.1025 fold of C-CSNAP (A1)	Average fold change (CSN^ΔCSNAP complex; [2]): 0.9179 fold
LAANEKAVHADFFNDFEDLFDDDDIQ [Position A11, CSNAP residues 32-57]		1.1357 fold of C-CSNAP (A1)	Average fold change (CSN^ΔCSNAP complex; [2]): 1.1791 fold
EFFNEFEDLFDDDDIQ [Position D10, C-CSNAP, Asp to Glu substitution D42,46E]	1.0622 fold of C-CSNAP (A1)	0.8862 fold of C-CSNAP (A1)	
AANEKAVHADFFNDFEDLFDDDDIQ [Position A10, CSNAP residues 33-57]		1.0826 fold of C-CSNAP (A1)	Average fold change (CSN^ΔCSNAP complex; [2]): 0.9871 fold
